Among the data in patent US10155259B2 (Merck Sharp & Dohme B.V., priority 2011, dated 2018) are IC50 values, retold here.

The structures appear in SMILES notation. Where only a bound is given, the exact number is not on record here.

The assay addresses T1, human FSH receptor (Homo sapiens, UniProt P23945).
T1 construct: expressed in transfected cells; host or cells: CHO cells, stably transfected; cotransfected with CRE-luciferase reporter
T1 sequence (P23945 18-695): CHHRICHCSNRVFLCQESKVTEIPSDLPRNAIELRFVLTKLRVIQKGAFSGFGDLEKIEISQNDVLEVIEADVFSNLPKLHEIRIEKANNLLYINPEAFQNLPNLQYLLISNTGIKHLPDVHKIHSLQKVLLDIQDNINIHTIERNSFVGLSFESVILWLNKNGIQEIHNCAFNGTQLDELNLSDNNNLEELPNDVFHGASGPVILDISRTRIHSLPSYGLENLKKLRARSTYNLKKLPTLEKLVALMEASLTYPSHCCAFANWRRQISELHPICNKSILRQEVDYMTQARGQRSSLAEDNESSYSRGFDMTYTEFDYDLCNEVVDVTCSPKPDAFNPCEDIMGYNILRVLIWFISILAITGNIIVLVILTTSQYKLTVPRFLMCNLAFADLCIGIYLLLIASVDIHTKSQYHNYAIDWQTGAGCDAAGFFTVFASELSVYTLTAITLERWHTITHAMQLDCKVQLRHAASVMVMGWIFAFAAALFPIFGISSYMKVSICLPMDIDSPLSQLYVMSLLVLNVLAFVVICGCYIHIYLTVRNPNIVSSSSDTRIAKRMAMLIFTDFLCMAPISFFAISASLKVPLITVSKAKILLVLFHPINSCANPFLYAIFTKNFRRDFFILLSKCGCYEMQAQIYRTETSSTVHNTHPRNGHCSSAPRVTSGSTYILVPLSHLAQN
Description: Antagonistic activity of compounds at the human FSH receptor expressed in CHO cells (CRE-luciferase reporter). It is filed as cell-based. As to conditions: CHO cells stably transfected with human FSH receptor and CRE/luciferase reporter; together with 49 μM recFSH; 4 hours incubation; 1% DMSO; read-out: IC50 (concentration of test compound causing half-maximal inhibition of the maximally attainable inhibition of the luciferase stimulation). How it is done: Antagonistic Activity of Compounds at the Human FSH Receptor Expressed in CHO Cells
Antagonistic activity of the compounds at the human FSH receptor was determined in Chinese Hamster Ovary (CHO) cells stably transfected with the human FSH receptor and cotransfected with a cAMP responsive element (CRE)/promotor directing the expression of a firefly luciferase reporter gene. Binding of the compounds to the Gs protein-coupled FSH receptor will result in an increase of cAMP, which in turn will induce an increased transactivation of the luciferase reporter. The cells (7,500 cells/well of a 384 well plate) were incubated in Dulbecco' minimal essential F12 modified medium (Invitrogen), supplemented with 1 μg/ml bovine insulin, 5 μg/ml human apo-transferrin, 100 U/ml penicillin G and 100 μg/ml streptomycin with the test compounds (concentration between 0.316 nM and 10.0 μM) in duplicate together with […] (which, at this concentration in the absence of test compound, induces 80% of the maximal luciferase stimulation) in a humidified atmosphere (95%) at 5-7% CO2 and 37° C. The final concentration of DMSO was 1%. After 4 hours of incubation, plates were allowed to adjust to room temperature for 1 hour. Then, SteadyLite (PerkinElmer) solution was added to the wells and cells were allowed to lyse for at least 1 hour at room temperature. Subsequently, luciferase activity was measured in a luminescence counter. The signal is expressed as counts per second (cps). The IC50 (concentration of test compound causing half-maximal (50%) inhibition of the maximally attainable inhibition of the luciferase stimulation by the compound) and efficacy of the compounds were determined using the software program MathIQ (version 2.3, ID Business Solutions Limited).
A general note: Reporter assays use an easily measured gene product as a stand-in for the process of interest.
As to `COc1cc2c(cc1C(=O)N1CCOCC1)-c1cc(C(=O)N[C@@H](CO)Cc3c[nH]c4ccccc34)c(-c3cccc(F)c3)n1CC2` [Example 47, (R)-3-(3-fluorophenyl)-N-(1-hydroxy-3-(1H-indol-3-yl)propan-2-yl)-8-methoxy-9-(morpholine-4-carbonyl)-5,6-dihydropyrrolo[2,1-a]isoquinoline-2-carboxamide], the IC50 fell in the range of 100 to 1000 nM.
As for `COc1cc2c(cc1C(=O)N(C)C)-c1cc(C(=O)N[C@@H](CO)Cc3c[nH]c4ccccc34)c(-c3cccc(F)c3)n1CC2` [Example 48, (R)-3-(3-fluorophenyl)-N2-(1-hydroxy-3-(1H-indol-3-yl)propan-2-yl)-8-methoxy-N9,N9-dimethyl-5,6-dihydropyrrolo[2,1-a]isoquinoline-2,9-dicarboxamide], the figure is 100 to 1000 nM; as for `COc1cc2c(cc1-c1cncnc1)-c1cc(C(=O)N[C@@H](CO)Cc3c[nH]c4ccccc34)c(-c3cccs3)n1CC2` [Example 49, (R)—N-(1-hydroxy-3-(1H-indol-3-yl)propan-2-yl)-8-methoxy-9-(pyrimidin-5-yl)-3-(thiophen-2-yl)-5,6-dihydropyrrolo[2,1-a]isoquinoline-2-carboxamide], below 100 nM.
For `COc1cc2c(cc1-c1cncnc1)-c1cc(C(=O)N[C@@H](CO)Cc3c[nH]c4ccccc34)c(-c3cccc(F)c3)n1CC2` [Example 50, (R)-3-(3-fluorophenyl)-N-(1-hydroxy-3-(1H-indol-3-yl)propan-2-yl)-8-methoxy-9-(pyrimidin-5-yl)-5,6-dihydropyrrolo[2,1-a]isoquinoline-2-carboxamide], the IC50 is below 100 nM.
As for `COc1cc2c(cc1-c1cnc(N(C)C)nc1)-c1cc(C(=O)N[C@@H](CO)Cc3c[nH]c4ccccc34)c(-c3cccc(F)c3)n1CC2` [Example 51, (R)-9-(2-(dimethylamino)pyrimidin-5-yl)-3-(3-fluorophenyl)-N-(1-hydroxy-3-(1H-indol-3-yl)propan-2-yl)-8-methoxy-5,6-dihydropyrrolo[2,1-a]isoquinoline-2-carboxamide], the figure is 100 to 1000 nM; as for `COc1cc2c(cc1-c1cnn(C)c1)-c1cc(C(=O)N[C@@H](CO)Cc3c[nH]c4ccccc34)c(-c3cccc(F)c3)n1CC2` [Example 52, (R)-3-(3-fluorophenyl)-N-(1-hydroxy-3-(1H-indol-3-yl)propan-2-yl)-8-methoxy-9-(1-methyl-1H-pyrazol-4-yl)-5,6-dihydropyrrolo[2,1-a]isoquinoline-2-carboxamide], below 100 nM; as for `COc1cc2c(cc1-c1cccnc1OC)-c1cc(C(=O)N[C@@H](CO)Cc3c[nH]c4ccccc34)c(-c3cccc(F)c3)n1CC2` [Example 53, 3-(3-fluorophenyl)-N—((R)-1-hydroxy-3-(1H-indol-3-yl)propan-2-yl)-8-methoxy-9-(2-methoxypyridin-3-yl)-5,6-dihydropyrrolo[2,1-a]isoquinoline-2-carboxamide], below 100 nM.
As for `COc1cc2c(cc1-c1cccnc1OC)-c1cc(C(=O)N[C@@H](CO)Cc3c[nH]c4ccccc34)c(-c3cccs3)n1CC2` [Example 54, N—((R)-1-hydroxy-3-(1H-indol-3-yl)propan-2-yl)-8-methoxy-9-(2-methoxypyridin-3-yl)-3-(thiophen-2-yl)-5,6-dihydropyrrolo[2,1-a]isoquinoline-2-carboxamide], the figure is below 100 nM; as for `COc1cc2c(cc1-c1cnn(C)c1)-c1cc(C(=O)N[C@@H](CO)Cc3c[nH]c4ccccc34)c(-c3cccs3)n1CC2` [Example 55, (R)—N-(1-hydroxy-3-(1H-indol-3-yl)propan-2-yl)-8-methoxy-9-(1-methyl-1H-pyrazol-4-yl)-3-(thiophen-2-yl)-5,6-dihydropyrrolo[2,1-a]isoquinoline-2-carboxamide], below 100 nM; as for `COc1cc2c(cc1-c1cnc(N(C)C)nc1)-c1cc(C(=O)N[C@@H](CO)Cc3c[nH]c4ccccc34)c(-c3cccs3)n1CC2` [Example 56, (R)-9-(2-(dimethylamino)pyrimidin-5-yl)-N-(1-hydroxy-3-(1H-indol-3-yl)propan-2-yl)-8-methoxy-3-(thiophen-2-yl)-5,6-dihydropyrrolo[2,1-a]isoquinoline-2-carboxamide], below 100 nM.
As for `COc1cc(-c2cc3c(cc2OC)CCn2c-3cc(C(=O)N[C@@H](CO)Cc3c[nH]c4ccccc34)c2-c2cccs2)ccn1` [Example 57, (R)—N-(1-hydroxy-3-(1H-indol-3-yl)propan-2-yl)-8-methoxy-9-(2-methoxypyridin-4-yl)-3-(thiophen-2-yl)-5,6-dihydropyrrolo[2,1-a]isoquinoline-2-carboxamide], the IC50 was below 100 nM.
As for `COc1ccc(-c2cc3c(cc2OC)CCn2c-3cc(C(=O)N[C@@H](CO)Cc3c[nH]c4ccccc34)c2-c2cccs2)cn1` [Example 58, (R)—N-(1-hydroxy-3-(1H-indol-3-yl)propan-2-yl)-8-methoxy-9-(6-methoxypyridin-3-yl)-3-(thiophen-2-yl)-5,6-dihydropyrrolo[2,1-a]isoquinoline-2-carboxamide], the figure is below 100 nM; as for `COc1cc2c(cc1-c1cn[nH]c1)-c1cc(C(=O)N[C@@H](CO)Cc3c[nH]c4ccccc34)c(-c3cccs3)n1CC2` [Example 59, (R)—N-(1-hydroxy-3-(1H-indol-3-yl)propan-2-yl)-8-methoxy-9-(1H-pyrazol-4-yl)-3-(thiophen-2-yl)-5,6-dihydropyrrolo[2,1-a]isoquinoline-2-carboxamide], below 100 nM.
As for `COc1cc2c(c(OC)c1OC)CCn1c-2cc(C(=O)N[C@@H](CO)Cc2c[nH]c3ccccc23)c1-c1ccccc1` [Example 60, (R)—N-(1-hydroxy-3-(1H-indol-3-yl)propan-2-yl)-7,8,9-trimethoxy-3-phenyl-5,6-dihydropyrrolo[2,1-a]isoquinoline-2-carboxamide], the figure is below 100 nM.
As for `COc1cc2c(c(OC)c1OC)CCn1c-2cc(C(=O)N[C@@H](CO)Cc2c[nH]c3ccccc23)c1-c1cccs1` [Example 61, (R)—N-(1-hydroxy-3-(1H-indol-3-yl)propan-2-yl)-7,8,9-trimethoxy-3-(thiophen-2-yl)-5,6-dihydropyrrolo[2,1-a]isoquinoline-2-carboxamide], the figure is below 100 nM; as for `COc1cc2c(c(OC)c1OC)CCn1c-2cc(C(=O)N[C@@H](CO)Cc2c[nH]c3ccccc23)c1-c1cccc(F)c1` [Example 62, (R)-3-(3-fluorophenyl)-N-(1-hydroxy-3-(1H-indol-3-yl)propan-2-yl)-7,8,9-trimethoxy-5,6-dihydropyrrolo[2,1-a]isoquinoline-2-carboxamide], below 100 nM.
For the molecule `COc1cc2c(c(OC)c1OC)-c1cc(C(=O)N[C@@H](CO)Cc3c[nH]c4ccccc34)c(-c3ccccc3)n1CC2` [Example 63, (R)—N-(1-hydroxy-3-(1H-indol-3-yl)propan-2-yl)-8,9,10-trimethoxy-3-phenyl-5,6-dihydropyrrolo[2,1-a]isoquinoline-2-carboxamide], the IC50 was below 100 nM.
With `COc1cc2c(c(OC)c1OC)-c1cc(C(=O)N[C@@H](CO)Cc3c[nH]c4ccccc34)c(-c3cccs3)n1CC2` [Example 64, (R)—N-(1-hydroxy-3-(1H-indol-3-yl)propan-2-yl)-8,9,10-trimethoxy-3-(thiophen-2-yl)-5,6-dihydropyrrolo[2,1-a]isoquinoline-2-carboxamide], the IC50 is below 100 nM.
For `COc1cc2c(c(OC)c1OC)-c1cc(C(=O)N[C@@H](CO)Cc3c[nH]c4ccccc34)c(-c3cccc(F)c3)n1CC2` [Example 65, (R)-3-(3-fluorophenyl)-N-(1-hydroxy-3-(1H-indol-3-yl)propan-2-yl)-8,9,10-trimethoxy-5,6-dihydropyrrolo[2,1-a]isoquinoline-2-carboxamide], the IC50 was below 100 nM.
